Results as given in paper PMC13095408, “DBeQ derivative targets vacuolar protein sorting 4 functions in cancer cells and suppresses tumor growth in mice” (The Journal of Pharmacology and Experimental Therapeutics, 2025).
Each block holds one compound with its values, some of them ahead of it.

Tests used:
[1] = system: GFP-CHMP4B-expressing U2OS cells; assay: GFP-CHMP4B accumulation cell-based assay (high-content microscopy); settings: for 4-107-induced GFP-CHMP4B accumulation on co-treatment: 100 nM BafA1 or 50 μM CQ with 2 μM 4-107, starved, 2 hours
Protocol: Plates were then scanned using the 20× objective for 1 hour with ≥100 cells/well across 6 fields/well. […] For all other assays, the cells were cultured overnight in black glass-bottom 96-well plates (Cellvis; P96-1.5H-N) then stained, rinsed, and treated with SM containing the indicated compounds (0.1% DMSO or 0.1% DMSO/0.1% ethanol [vehicle] final). Plates were scanned using the 20× NA .70 objective at the indicated intervals with ≥ 300 cells/well across 3 fields/well. […]

[2] = target: T1, VPS4B (Homo sapiens, UniProt O75351); assay: VPS4B ATPase activity, EnzChek Phosphate assay; type: biochemical; set-up: His tag (pET28a vector-encoded) (N); made in house; host or cells: Escherichia coli BL21(DE3)
T1 sequence (O75351 1-444): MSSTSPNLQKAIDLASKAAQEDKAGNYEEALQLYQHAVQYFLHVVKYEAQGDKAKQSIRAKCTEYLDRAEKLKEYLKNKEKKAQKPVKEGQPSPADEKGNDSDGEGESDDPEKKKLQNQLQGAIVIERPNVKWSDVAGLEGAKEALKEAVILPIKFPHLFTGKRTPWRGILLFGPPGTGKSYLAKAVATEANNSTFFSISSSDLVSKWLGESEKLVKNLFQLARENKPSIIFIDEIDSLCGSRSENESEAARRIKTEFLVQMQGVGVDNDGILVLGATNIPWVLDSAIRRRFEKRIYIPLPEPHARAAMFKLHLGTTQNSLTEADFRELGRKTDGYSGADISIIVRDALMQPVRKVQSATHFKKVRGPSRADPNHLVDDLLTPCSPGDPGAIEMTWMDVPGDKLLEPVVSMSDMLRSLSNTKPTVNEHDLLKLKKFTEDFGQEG
Protocol: VPS4B and VCP ATPase activities were measured using the EnzChek Phosphate assay for the quantification of released phosphate. Assay buffers were based on literature precedents ([Cupido et al, 2019], [2021]) as follows: VPS4B buffer (20 mM HEPES-KOH, pH 7.4, 25 mM KOAc, 2 mM MgCl2, 5 mM (NH4)2SO4, 0.5 mM CaCl2, 2.5 mM DTT, 0.1 mg/mL BSA, 0.005% v/v Triton X-100), VCP buffer (20 mM HEPES-NaOH, pH 7.4, 20 mM NaCl, 10 mM MgCl2, 5 mM (NH4)2SO4, 0.5 mM CaCl2, 2.5 mM DTT, 0.1 mg/mL BSA, 0.005% v/v Triton X-100). In black clear-bottom 384-well plates, 22.5 μL of 5% DMSO or 40× test compounds diluted in the respective assay buffer was added to each well. ATPases were diluted to 1 μM in the respective buffers containing 2× EnzChek Phosphate assay coupling reagents of 400 μM MESG and 2 U of PNP, then 25 μL was added to each well. Plates were mixed at 1000 rpm for 30 minutes at RT while being protected from light. The reaction was initiated by adding 2.5 μL of 20 mM MgATP or water followed by mixing at 1200 rpm for 30 seconds at RT. Plates were measured at 360 nm using a CLARIOstar plate reader (BMG LABTECH) for 20 minutes at 37 °C. ATPase activity was calculated as the amount of phosphate released over a 5-minute interval under linear initial velocity conditions. The remaining ATPase activity was calculated by normalizing compound-treated activity values to the DMSO control. IC50 was calculated by fitting normalized values to a sigmoidal dose-response curve with Hill slope = −1 using Graph Pad Prism 10.0.
To identify VPS4i, we developed enzyme- and cell-based VPS4 functional assays to serve as VPS4i-screening platforms. For the enzyme-based assay, we used the colorimetric EnzChek Phosphate assay that detects free phosphate with the advantage of continuous measurement of ATP hydrolysis over time. […] Due to the high sequence and structural similarity of AAA-ATPases, we also established a VCP ATPase assay to evaluate hit selectivity. […] For the cell-based assay, our approach was based on how VPS4 inhibition causes the accumulation of ESCRT-III ([Babst et al, 1998]; [Katoh et al, 2003]). We used an N-terminal GFP-tagged CHMP4B reporter system because it is the most abundant ESCRT-III subunit ([Katoh et al, 2004]; [Teis et al, 2008]). Our aim was to test compounds under short-term serum and amino acid starvation to stimulate ESCRT activity for easier detection of inhibitors ([Takahashi et al, 2018], [2019]). […] Overall, we established 2 systems for VPS4i screening, a VPS4B ATPase activity assay and a GFP-CHMP4B accumulation cell-based assay.

[3] = screened at 1 µM, mean ± S.D., Supplemental Table 2
[4] = screened at 5 µM, mean ± S.D., Supplemental Table 2
[5] = screened at 1 μM, starvation media, 1 hour, foci intensity per cell normalized to 4-107, mean ± SD, Table 1
[6] = remaining ATPase activity, screened at 5 μM, mean ± SD, Table 1

VPS4B ATPase (% DMSO) [2, 4]: 97.54 ± 1.15 % DMSO
Structure (SMILES): COc1cccc2c(NCCc3ccccc3)nc(-n3ccc4cncnc43)nc12 [Compound 5-59]
GFP-CHMP4B (% 4-107) [1, 3]: 2.84 ± 0.06 % 4-107

VPS4B ATPase (% DMSO) [2, 4]: 72.71 ± 0.81 % DMSO
Structure (SMILES): COc1ncnc2c1ccn2-c1nc(NCCc2ccccc2)c2cccc(OC)c2n1 [Compound 5-53]
GFP-CHMP4B (% 4-107) [1, 3]: 1.68 ± 0.33 % 4-107

VPS4B ATPase (% DMSO) [2, 4]: 93.20 ± 1.22 % DMSO
Structure (SMILES): COc1cccc2c(NCc3ccc(C(F)(F)F)cc3)nc(-n3ccc4cncnc43)nc12 [Compound 5-55]
GFP-CHMP4B (% 4-107) [1, 3]: 2.25 ± 0.55 % 4-107

VPS4B ATPase (% DMSO) [2, 4]: 46.29 ± 0.61 % DMSO
Structure (SMILES): COc1cccc2c(NCc3ccccc3)nc(NCc3cccc(OC(F)(F)F)c3)nc12 [Compound 7-11]
GFP-CHMP4B (% 4-107) [1, 3]: 22.15 ± 1.19 % 4-107

VPS4B ATPase (% DMSO) [2, 4]: 45.60 ± 2.79 % DMSO
Structure (SMILES): COc1cccc2c(NCc3ccccc3)nc(N[C@H](C)c3cccc4ccccc34)nc12 [Compound 5-103]
GFP-CHMP4B (% 4-107) [1, 3]: 4.36 ± 1.56 % 4-107

VPS4B ATPase (% DMSO) [2, 4]: 40.44 ± 0.01 % DMSO
Structure (SMILES): COc1cccc2c(NCCc3ccccc3)nc(N[C@H](C)c3ccccc3)nc12 [Compound 5-91]
GFP-CHMP4B (% 4-107) [1, 3]: 1.69 ± 0.12 % 4-107

VPS4B ATPase (% DMSO) [2, 4]: 42.92 ± 3.93 % DMSO
Structure (SMILES): COc1cccc2c(NCCc3ccccc3)nc(N[C@@H](C)c3ccccc3)nc12 [Compound 5-83]
GFP-CHMP4B (% 4-107) [1, 3]: 1.83 ± 1.02 % 4-107

VPS4B ATPase (% DMSO) [2, 4]: 28.5 ± 0.04 % DMSO
Structure (SMILES): COc1cccc2c(NCc3ccc(Cl)cc3)nc(NCc3ccc(Cl)cc3)nc12 [Compound 5-07]
GFP-CHMP4B (% 4-107) [1, 3]: 14.56 ± 10.71 % 4-107

VPS4B ATPase (% DMSO) [2, 4]: 43.91 ± 0.05 % DMSO
Structure (SMILES): COc1cccc2c(NCc3ccccc3)nc(N[C@@H](C)c3ccccc3)nc12 [Compound 5-81]
GFP-CHMP4B (% 4-107) [1, 3]: 7.65 ± 7.10 % 4-107

The next lines start with the compound.

Structure (SMILES): COc1cccc2c(NCc3ccccc3)nc(NCc3cccc(C(=O)O)c3)nc12 [Compound 5-35-iv]
GFP-CHMP4B (% 4-107) [1, 3]: 10.92 ± 9.21 % 4-107
VPS4B ATPase (% DMSO) [2, 4]: 88.20 ± 5.24 % DMSO

Structure (SMILES): COc1ccc2nc(NCc3ccccc3)nc(NCc3ccccc3)c2c1 [Compound 7]
GFP-CHMP4B (% 4-107) [1, 3]: 8.92 ± 2.87 % 4-107
GFP-CHMP4B (% 4-107) [1, 5]: 8.92 ± 2.87 % 4-107
VPS4B ATPase (% DMSO) [2, 6]: 43.86 ± 1.20 % DMSO
VPS4B ATPase (% DMSO) [2, 4]: 43.86 ± 1.20 % DMSO

Structure (SMILES): COc1cccc2nc(NCc3ccccc3)nc(NCc3ccccc3)c12 [Compound 7-27]
GFP-CHMP4B (% 4-107) [1, 3]: 19.55 ± 2.22 % 4-107

Structure (SMILES): Nc1cccc2c(NCc3ccccc3)nc(NCc3ccc(F)cc3)nc12 [Compound 7-69]
GFP-CHMP4B (% 4-107) [1, 3]: 20.04 ± 6.12 % 4-107

Structure (SMILES): COc1cccc2c(NCc3ccccc3)nc(Cl)nc12 [Compound 4-95]
GFP-CHMP4B (% 4-107) [1, 3]: 1.76 ± 0.74 % 4-107

Structure (SMILES): COc1cccc2c(NCCc3ccc(S(N)(=O)=O)cc3)nc(-n3ccc4ccc(C(=O)O)cc43)nc12 [Compound 5-43-iv]
GFP-CHMP4B (% 4-107) [1, 3]: 1.27 ± 0.69 % 4-107
VPS4B ATPase (% DMSO) [2, 4]: 99.19 ± 4.43 % DMSO

Structure (SMILES): CO/C1=C\C(C)=C\[C@@H](C)[C@@H](O)[C@@H](C)C/C(C)=C/C=C/[C@H](OC)[C@@H]([C@@H](C)[C@@H](O)[C@H](C)[C@@]2(O)C[C@@H](O)[C@H](C)[C@@H](C(C)C)O2)OC1=O [BafA1, bafilomycin A1, reference compound]
4-107-induced GFP-CHMP4B accumulation on co-treatment [1]: blocked

Structure (SMILES): COc1cccc2c(NCc3ccccc3)nc(NCc3cccc(C(F)(F)F)c3)nc12 [Compound 15]
GFP-CHMP4B (% 4-107) [1, 3]: 25.61 ± 20.09 % 4-107
GFP-CHMP4B (% 4-107) [1, 5]: 25.61 ± 20.09 % 4-107
VPS4B ATPase (% DMSO) [2, 6]: 28.57 ± 1.13 % DMSO
VPS4B ATPase (% DMSO) [2, 4]: 28.57 ± 1.13 % DMSO

Structure (SMILES): COC(=O)c1cccc(CNc2nc(NCc3cccc(C(=O)OC)c3)c3cccc(OC)c3n2)c1 [Compound 4-131-iii]
GFP-CHMP4B (% 4-107) [1, 3]: 11.94 ± 9.74 % 4-107
VPS4B ATPase (% DMSO) [2, 4]: 34.70 ± 0.70 % DMSO

Structure (SMILES): COC(=O)c1ccc2ccn(-c3nc(NCc4ccccc4)c4cccc(OC)c4n3)c2c1 [Compound 8]
GFP-CHMP4B (% 4-107) [1, 3]: 1.38 ± 0.73 % 4-107
GFP-CHMP4B (% 4-107) [1, 5]: 1.38 ± 0.73 % 4-107
VPS4B ATPase (% DMSO) [2, 6]: 82.10 ± 2.19 % DMSO
VPS4B ATPase (% DMSO) [2, 4]: 82.10 ± 2.19 % DMSO

Structure (SMILES): COC(=O)c1ccc2c(ccn2-c2nc(NCc3ccccc3)c3cccc(OC)c3n2)c1 [Compound 5-41-iii]
GFP-CHMP4B (% 4-107) [1, 3]: 2.82 ± 1.33 % 4-107
VPS4B ATPase (% DMSO) [2, 4]: 80.70 ± 2.02 % DMSO

Structure (SMILES): COc1cccc2c(NCCc3cccc(S(N)(=O)=O)c3)nc(NCCc3ccc(S(N)(=O)=O)cc3)nc12 [Compound 5-15-iv]
GFP-CHMP4B (% 4-107) [1, 3]: 3.22 ± 0.67 % 4-107
VPS4B ATPase (% DMSO) [2, 4]: 77.37 ± 4.37 % DMSO

Structure (SMILES): COc1cccc2c(NCc3ccccc3)nc(-n3ccc4ccc(C(=O)O)cc43)nc12 [Compound 5-39-iv]
GFP-CHMP4B (% 4-107) [1, 3]: 1.59 ± 0.93 % 4-107
VPS4B ATPase (% DMSO) [2, 4]: 93.04 ± 0.65 % DMSO

Structure (SMILES): CCN(CC)CCCC(C)Nc1ccnc2cc(Cl)ccc12 (stereo not drawn) [CQ, chloroquine diphosphate, reference compound]
4-107-induced GFP-CHMP4B accumulation on co-treatment [1]: blocked

Structure (SMILES): COc1ccc(CNc2nc(NCc3ccccc3)c3cccc(N)c3n2)cc1 [Compound 7-65]
GFP-CHMP4B (% 4-107) [1, 3]: 17.36 ± 5.75 % 4-107

Structure (SMILES): COC(=O)c1ccc2c(ccn2-c2nc(NCc3ccc(S(N)(=O)=O)cc3)c3cccc(OC)c3n2)c1 [Compound 5-47]
GFP-CHMP4B (% 4-107) [1, 3]: 1.41 ± 0.61 % 4-107

Structure (SMILES): Nc1cccc2c(NCc3ccccc3)nc(NCc3cccc(F)c3)nc12 [Compound 7-77]
GFP-CHMP4B (% 4-107) [1, 3]: 26.24 ± 20.18 % 4-107

Structure (SMILES): COc1ccc2c(Nc3ccccc3)nc(NCc3ccccc3)nc2c1 [Compound 7-45]
GFP-CHMP4B (% 4-107) [1, 3]: 24.94 ± 5.94 % 4-107

Structure (SMILES): COc1cccc2c(Nc3ccccc3)nc(NCc3ccccc3)nc12 [Compound 7-75]
GFP-CHMP4B (% 4-107) [1, 3]: 11.57 ± 12.42 % 4-107

Structure (SMILES): Fc1ccc2nc(NCc3ccccc3)nc(NCc3ccccc3)c2c1 [Compound 5-143]
GFP-CHMP4B (% 4-107) [1, 3]: 11.12 ± 2.40 % 4-107

Structure (SMILES): COc1ccc2c(Nc3ccccc3)nc(Cl)nc2c1 [Compound 7-41]
GFP-CHMP4B (% 4-107) [1, 3]: 17.93 ± 2.08 % 4-107
